Columns and labels:
[1] = CaMKII delta Biochemical Assay: The biochemical activity of recombinant CaMKIIδ was measured by monitoring the phosphorylation of a target peptide using Homogenous Time Resolved Fluorescence (HTRF) technology from CisBio Bioassays. 10 pM […] (Life Technologie Corporation) was incubated for 1 hour with 110 nM calmodulin (EMD Millipore), 1 μM Biotin-STK1 (target peptide, CisBio Bioassays) and 12 μM ATP (Sigma-Aldrich) in a buffer containing 20 mM Hepes pH7.2, 10 mM MgCl2 and 1 mM CaCl2 as well as the compound to be tested or DMSO at a final concentration of 0.6%. The reaction was stopped with the addition of the detection buffer (containing EDTA) with Eu-cryptate labeled anti-phospho-STK1 antibody (CisBio Bioassays) and 125 nM XL665 labeled streptavidin (CisBio Bioassays).
[2] = CaMKII Cell-Based Activity: CaMKII activity in neonatal rat ventricular myocytes (NRVM) was measured by monitoring the phosphorylation level of phospholamban using high-content imaging. NRVMs were plated in a clear bottom 384-well plate in medium supplemented with 10% fetal bovine serum (FBS) and incubated at 37° C., 5% CO2 overnight. The medium was changed to a serum-free medium and compounds were dosed to the cells. The cells were incubated at 37° C., 5% CO2 for 4 hours and were then treated with 100 nM ATX-II (Alomone Labs) to activate CaMKII. 10 minutes after the addition of ATX-II, the cells were fixed with 4% formaldehyde followed by permeabilization with 0.1% triton X100. The fixed cells were stained with an anti-phospho-phospholamban primary antibody (Santa Cruz Biotechnology) and an Alexa488-labeled anti-rabbit IgG secondary antibody (Life Technologies Corporation) as well as Hoechst 33342 (Life Technologies Corporation). The cells were imaged using an ArrayScan VTI (Cellomics) and analyzed for cells containing a positive fluorescent signal at 485 nm, reported as % responder. The % responders were plotted against the compound concentration to determine the compounds EC50.

EC50 [2] [µM] | Compound | IC50 [1] [µM]
0.103 | CCN(CC)[C@@H](C)CNC(=O)c1cccc(-c2cnn3ccc(-c4cccs4)nc23)n1 | 
0.0378 | CC[C@@H](CNC(=O)c1cc(-c2cnn3ccc(-c4cccs4)nc23)nc(N2CC[C@H]2C(=O)NC)c1)N(CC)CC (single isomer, unassigned) | 
0.0343 | CC[C@H](CNC(=O)c1cc(-c2cnn3ccc(-c4cccs4)nc23)nc(N2CC[C@H]2C(=O)NC)c1)N(CC)CC (single isomer, unassigned) | 

Compound | EC50 [2] [µM] | IC50 [1] [µM]
CCN1C[C@@H](F)C[C@H]1CNC(=O)c1ccnc(-c2cnn3ccc(-c4cccs4)nc23)c1 | 0.0534 | 0.00707

— ChEMBL document CHEMBL5725801, “Fused heterocyclic compounds as CaM kinase inhibitors” (2018)
